Experimental data from PubChem BioAssay (NCI).
Where “and” joins values, the source holds several entries; their conditions need not be identical. Equal values may be shown once.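 A five-concentration, 48-hour dose response in 96-well plates underlies each endpoint, interpolated linearly between surrounding concentrations. GI50 is the concentration that inhibits growth by half. TGI: total growth inhibition.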

How the values were obtained:
Test in all cases: DTP human tumour cell line panel, 48 h
SF-268 CNS = system: SF-268 CNS
HOP-62 NSCLC = system: HOP-62 NSCLC
MCF7 breast = system: MCF7 breast
OVCAR-5 ovarian = system: OVCAR-5 ovarian
A498 renal = system: A498 renal
MOLT-4 leukemia = system: MOLT-4 leukemia
RXF 393 renal = system: RXF 393 renal
HS 578T breast = system: HS 578T breast
SN12C renal = system: SN12C renal
NCI/ADR-RES ovarian = system: NCI/ADR-RES ovarian

Compound	GI50 (SF-268 CNS)	TGI (SF-268 CNS)	GI50 (HOP-62 NSCLC)	TGI (HOP-62 NSCLC)	GI50 (MCF7 breast)	TGI (MCF7 breast)	GI50 (OVCAR-5 ovarian)	TGI (OVCAR-5 ovarian)	GI50 (A498 renal)	TGI (A498 renal)	GI50 (MOLT-4 leukemia)	TGI (MOLT-4 leukemia)	GI50 (RXF 393 renal)	TGI (RXF 393 renal)	GI50 (HS 578T breast)	TGI (HS 578T breast)	GI50 (SN12C renal)	TGI (SN12C renal)	GI50 (NCI/ADR-RES ovarian)	TGI (NCI/ADR-RES ovarian)
COC1(C(=O)N[C@@H](C)c2ccc(-n3cc(F)cn3)nc2)CCC(c2nc(C)cc(Nc3cc(C)[nH]n3)n2)CC1 (some centres not stated)	0.811 µM	8.04 µM	1.34 µM	14.6 µM	1.53 µM	14.6 µM	1.4 µM	12.5 µM	0.147 µM	0.7 µM	3.48 µM	> 100 µM	0.177 µM	0.665 µM	0.248 µM	1.31 µM	0.581 µM	12.4 µM	3.74 µM	17.7 µM
Cc1occc1C(=S)Nc1ccc(Cl)c(COC(C)(C)C)c1	–	35.9 µM	–	44.9 µM	–	31.6 µM	–	50.6 µM	–	32.3 µM	–	47.9 µM	–	32.3 µM	–	49.6 µM	–	29.2 µM	–	33.4 µM
CC/C=C\C=C/C(=O)N/C=C/CC1Cc2cccc(O)c2C(=O)O1 (configuration not stated)	15.1 µM	53.3 µM	14.5 µM	50.5 µM	3.87 µM	49.4 µM	32.5 µM	99.4 µM	20.6 µM	59.9 µM	13.4 µM	42.2 µM	16.1 µM	35.8 µM	28.9 µM	> 100 µM	17.8 µM	38.1 µM	35.5 µM	> 100 µM
CN1CCN(CCc2cccc(C(=O)c3cnn(-c4ccc(F)cc4)c3N)c2)CC1	> 25 µM	> 25 µM	> 25 µM	> 25 µM	> 25 µM	> 25 µM	> 25 µM	> 25 µM	> 25 µM	> 25 µM	> 25 µM	> 25 µM	> 25 µM	> 25 µM	> 25 µM	> 25 µM	> 25 µM	> 25 µM	> 25 µM	> 25 µM
COc1cc(C2c3cc4c(cc3OC(N3CCCC3)C2C)OCO4)cc(OC)c1OC (configuration not stated)	–	> 59.3 µM	–	22.5 µM	–	4.06 µM	–	> 47.9 µM	–	7.73 µM	–	> 18.6 µM	–	2.41 µM	–	2.3 µM	–	28 µM	–	0.531 µM
COc1ccc(C(=O)/C=C/c2ccc(/C=C/c3cc(OC)c(OC)c(OC)c3)cc2)cc1	6.08 µM	88.3 µM	12.8 µM	63.8 µM	2.18 µM	36.6 µM	34.1 µM	> 100 µM	18.6 µM	> 100 µM	3.49 µM	> 100 µM	8.01 µM	43.6 µM	9.11 µM	> 100 µM	9.61 µM	> 100 µM	5.46 µM	> 100 µM
CC1SC(c2c(Cl)cccc2Cl)N(NC(=O)c2[nH]c3ccc(F)cc3c2-c2ccccc2)C1=O (configuration not stated)	1.97 µM	4.89 µM	1.79 µM	3.33 µM	3.18 µM	11.5 µM	3.06 µM	21.3 µM	2.33 µM	9.46 µM	13.2 µM	64.7 µM	1.73 µM	4.12 µM	1.93 µM	4.38 µM	2.26 µM	5.86 µM	2.05 µM	4.8 µM
CCN(Cc1ccc(F)c(F)c1)c1ccc(CO)c(Cl)c1	15 µM	32.4 µM	1.71 µM	17.4 µM	0.195 µM	12.3 µM	0.0592 µM	0.306 µM	0.0353 µM	0.153 µM	16.8 µM	47.6 µM	2.73 µM	15.9 µM	12.4 µM	40 µM	11 µM	23.9 µM	11.4 µM	27.4 µM
CC(C)NC[C@@H](C(=O)N1CCN(c2ncnc3c2[C@H](C)C[C@H]3O)CC1)c1ccc(Cl)cc1	> 10 µM and 28.7 µM	> 100 µM	> 10 µM and 11.9 µM	> 100 µM	1.6 µM and 1.74 µM	> 100 µM	> 10 µM and 29.8 µM	> 100 µM	0.396 µM and 0.24 µM	5.88 µM and 4.3 µM	0.676 µM and 0.747 µM	> 10 µM and 73.9 µM	0.293 µM and 0.341 µM	4.85 µM and 5.55 µM	1 µM and 0.657 µM	> 10 µM and 18.4 µM	> 10 µM and 44.7 µM	> 100 µM	> 100 µM	> 100 µM
COc1ccc(N2C(C)=C(C#N)C34C(=O)N(c5ccccc5)C(=O)C3=C(O)C=CC24O)cc1 (configuration not stated)	16.6 µM	80.2 µM	22.7 µM	75.8 µM	10.6 µM	34.9 µM	18.1 µM	73.8 µM	18.6 µM	48.2 µM	21.2 µM	71.7 µM	3.15 µM	14.7 µM	24.1 µM	> 100 µM	10 µM	21.9 µM	29 µM	91 µM
CN(CCCN)CCCNc1nc2ccccc2c2[nH]c3ccccc3c12	0.241 µM	1.07 µM	0.179 µM	0.683 µM	0.245 µM	1.03 µM	0.18 µM	0.652 µM	1.61 µM	3.08 µM	0.186 µM	1.24 µM	0.109 µM	0.515 µM	0.0765 µM	0.334 µM	0.119 µM	0.606 µM	1.48 µM	10.8 µM
COc1cc(C2c3cc4c(cc3[C@@H](Nc3ccc(C#N)cc3)C3COC(=O)[C@H]23)OCO4)cc(OC)c1O (some centres not stated)	1.4 µM	42.5 µM and > 100 µM	0.194 µM and 0.234 µM	2.82 µM and 0.59 µM and 2.57 µM	0.329 µM and 0.188 µM	40.4 µM and 75 µM and > 100 µM	2.96 µM and 3.3 µM	31.7 µM and 59.9 µM and > 100 µM	–	11.4 µM	0.0307 µM	–	2.53 µM	4.96 µM and 9.01 µM	3.38 µM	29.1 µM and > 100 µM	1.91 µM and 0.728 µM	–	6.59 µM and 2.68 µM	11.6 µM and 41.3 µM and 21.2 µM
Nc1c(C(=O)Nc2cccc([N+](=O)[O-])c2)sc2nc3c(cc12)C(O)CCC3 (configuration not stated)	9.62 µM	> 89.8 µM	6.66 µM	> 100 µM	3.14 µM	> 100 µM	> 100 µM	> 100 µM	2.7 µM	> 100 µM	5.74 µM	> 100 µM	6.76 µM	> 65.8 µM	11 µM	> 100 µM	7.39 µM	> 100 µM	4.72 µM	> 100 µM
COC(=O)/C=C/C=C(c1ccccc1)c1ccccc1	4.63 µM	> 100 µM	4.14 µM	40.9 µM	4.08 µM	> 100 µM	14 µM	> 100 µM	10.6 µM	39.6 µM	14.2 µM	> 100 µM	6.24 µM	30 µM	8.65 µM	46 µM	7.83 µM	> 100 µM	3.12 µM	17 µM
CCCC[C@H](NC(=O)[C@H]1CCCN1C)C(=O)N(C)[C@H](C[C@@H](OC(C)=O)c1nc(C(=O)N[C@@H](Cc2ccccc2)C[C@H](C)C(=O)OCC)cs1)C(C)C	0.0217 µM	25.2 µM	0.0439 µM	> 33.3 µM	< 0.00333 µM	> 33.3 µM	0.0642 µM	> 33.3 µM	0.00714 µM	0.0841 µM	0.0258 µM	15.5 µM	0.00745 µM	11.3 µM	0.0186 µM	6.92 µM	0.0316 µM	8.41 µM	0.542 µM	> 33.3 µM
O=C(c1ccc(F)cc1)c1cccc(C(=O)c2ccc(F)cc2)n1	–	67.8 µM	–	48.6 µM	–	> 100 µM	–	> 100 µM	–	> 100 µM	–	> 100 µM	–	33.4 µM	–	> 94.8 µM	–	> 56.2 µM	–	> 100 µM
CC(C)(C)C[C@H]1NC(C(=O)NCC[C@H](O)CO)[C@H](c2cccc(Cl)c2)[C@@]12C(=O)Nc1cc(Cl)c(F)cc12 (some centres not stated)	13.7 µM	30.2 µM	15.5 µM	29.7 µM	1.61 µM	11.7 µM	15.5 µM	31.8 µM	4.41 µM	18.7 µM	2.19 µM	8.22 µM	13.7 µM	27.1 µM	16 µM	60.4 µM	19.8 µM	46.8 µM	37 µM	> 100 µM
N#Cc1cnc2cc(OC[C@H](O)CO)c(NC(=O)CC3CSSC3)cc2c1Nc1ccc(OCc2cccc(F)c2)c(Cl)c1	0.537 µM	1.56 µM	0.895 µM	1.81 µM	0.0865 µM	0.176 µM	0.872 µM	1.89 µM	1.03 µM	2.45 µM	0.0931 µM	0.209 µM	0.987 µM	1.85 µM	0.447 µM	1.69 µM	0.35 µM	1.1 µM	2.72 µM	5.1 µM
O=C(CC(=O)CC(O)(C(F)(F)F)C(F)(F)F)CC(O)(C(F)(F)F)C(F)(F)F	–	> 10 µM	–	> 10 µM	–	> 10 µM	–	> 10 µM	–	> 10 µM	–	> 10 µM	–	> 10 µM	–	> 10 µM	–	> 10 µM	–	> 10 µM
COC(=O)[C@H](Cc1cn(C)cn1)NC(=O)[C@H](Cc1c[nH]c2ccccc12)NC(=O)Nc1cc(C(F)(F)F)cc(C(F)(F)F)c1	> 10 µM	> 10 µM	> 10 µM	> 10 µM	> 10 µM	> 10 µM	> 10 µM	> 10 µM	> 10 µM	> 10 µM	> 10 µM	> 10 µM	> 10 µM	> 10 µM	> 10 µM	> 10 µM	> 10 µM	> 10 µM	> 10 µM	> 10 µM
Cc1c(C(=O)/C=C/c2csc3ccccc23)[n+](=O)c2ccccc2n1[O-]	1.44 µM	2.78 µM	1.41 µM	2.8 µM	2.28 µM	8.18 µM	1.47 µM	2.94 µM	3.38 µM	13.8 µM	2.71 µM	7 µM	1.91 µM	3.58 µM	1.56 µM	5.22 µM	2 µM	4.72 µM	2.01 µM	5 µM
CCCN=Cc1cc(Cc2ccc(O)c(C=NCCC)c2)ccc1O	–	46.4 µM	–	> 100 µM	–	6.87 µM	–	36.6 µM	–	8.97 µM	–	3.71 µM	–	37.7 µM	–	92.2 µM	–	15.3 µM	–	59.6 µM
COc1ccc(-c2ccc(/C=N/n3c(COc4ccc(Cl)cc4Cl)n[nH]c3=S)o2)c([N+](=O)[O-])c1	23.1 µM	67.1 µM	19.8 µM	35.7 µM	15.9 µM	41.7 µM	21.3 µM	47.6 µM	16.8 µM	41.5 µM	14 µM	38.9 µM	16.6 µM	40.2 µM	40.8 µM	> 100 µM	24.2 µM	58.4 µM	19.8 µM	46.4 µM
